Results on two sequences are retold here after patent publication US20230407374A1, “SYSTEMS AND METHODS FOR HIGH THROUGHPUT SCREENING OF MOLECULAR INTERACTIONS” (priority 2020, published 2023).

pKi: −log10 of the molar value.

The term pKi denotes −log10 of the Ki, conventionally taken in molar units. Low readings indicate a large Ki, high ones a small Ki.

The target of the assay is short 8-mer DNA zipper (Z1: ATGTCCAT) target interaction. Briefly: nanoswitch-FRET dose response with blocking oligonucleotides. The format is binding. The following applies: 1 nM nanoswitches with Z1 target interaction. From the text:
DNA nanoswitches were created as previously described (Koussa et al. 2015, Hansen et al. 2017). Briefly, circular ssDNA from the 7,249-nt bacteriophage M13 (New England BioLabs) was linearized by enzymatic cleavage of a single site using BtscI (New England BioLabs) and a site-specific oligonucleotide. This ssDNA scaffold was mixed with a molar excess of tiling 60-mer oligonucleotides (10:1), excluding the complementary regions for detection oligonucleotide and target interaction partners, and subjected to a temperature ramp from 90 to 20° C. at 1° C.−min-1. The detection oligonucleotides were added at 55° C. during the hybridization protocol. […]
The FRET from nanoswitches was quantified using a BioTek Neo plate reader. Specifically, the FRET emission was measured at 665 nm from […] and the non-FRET emission at 555 nm from […] using the built in monochromator-based system. The FRET ratio was then calculated as the ratio of the signal at 665 nm over 555 nm. For nanoswitch concentrations 2 nM and above, to reduce background, excitation at 540 nm was used instead and the FRET emission was measured at 680 nm.
FRET was measured in the presence of increasing concentrations of 7-mer (TGGACAT) or 8-mer ([…]) blocking oligonucleotides that bind to one side of the zipper. […]

ATGGACAT [8-mer]: the pKi (95% CI by bootstrapping (150 nM, 430 nM)) is 6.59.
On to TGGACAT [7-mer], for which the pKi (95% CI by bootstrapping (1.2 μM, 3.8 μM)) is 5.70.
